# Assay results published in PubChem BioAssay (NCI).
# Where “and” joins values, the source holds several entries; their conditions need not be identical. Equal entries are not always repeated.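 Results reflect a 48-hour exposure of cells in 96-well plates to compound at five concentrations. The concentration for 50% growth inhibition is given as GI50. Definition used: TGI = concentration required for complete inhibition of growth.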
# Columns and labels:
# Test in all cases: DTP human tumour cell line panel, 48 h
# [1] = system: UACC-62 melanoma
# [2] = system: HL-60(TB) leukemia
# [3] = system: MDA-MB-435
# [4] = system: CAKI-1 renal
# [5] = system: SF-268 CNS
# [6] = system: HS 578T breast
# [7] = system: U251 CNS
# [8] = system: SW-620 colon
# [9] = system: PC-3 prostate
# [10] = system: OVCAR-5 ovarian
# [11] = system: MOLT-4 leukemia
# [12] = system: NCI-H522 lung
# [13] = system: UO-31 renal
# [14] = system: NCI-H23 lung
# [15] = system: 786-0 renal
# [16] = system: SF-295 CNS
# [17] = system: A498 renal
# [18] = system: HCT-116 colon
# [19] = system: HOP-92 NSCLC
# [20] = system: HCT-15 colon
# [21] = system: TK-10 renal
# [22] = system: K-562 leukemia
# [23] = system: DU-145 prostate
# [24] = system: IGROV1 ovarian
# [25] = system: SK-OV-3 ovarian
# [26] = system: KM12 colon
# [27] = system: MDA-MB-231 breast
# [28] = system: SK-MEL-2 melanoma
# [29] = system: SR leukemia
# [30] = system: SNB-75 CNS
# [31] = system: LOX IMVI melanoma
# [32] = system: EKVX NSCLC
# [33] = system: NCI-H460 lung
# [34] = system: MALME-3M melanoma
# [35] = system: SF-539 CNS
# [36] = system: M14 melanoma
# [37] = system: RPMI-8226 leukemia
# [38] = system: OVCAR-8 ovarian
# [39] = system: ACHN renal
# [40] = system: CCRF-CEM leukemia
# [41] = system: HCC-2998 colon
# [42] = system: SNB-19 CNS
# [43] = system: MCF7 breast
# [44] = system: HOP-62 NSCLC
# [45] = system: SK-MEL-5 melanoma
# [46] = system: SK-MEL-28 melanoma
# [47] = system: NCI/ADR-RES ovarian
# [48] = system: HT29 colon
# [49] = system: NCI-H226 lung
# [50] = system: SN12C renal
# [51] = system: COLO 205 colon
# [52] = system: OVCAR-3 ovarian
# [53] = system: OVCAR-4 ovarian
# [54] = system: BT-549 breast
# [55] = system: T-47D breast
# [56] = system: UACC-257 melanoma
# [57] = system: RXF 393 renal
# [58] = system: A549 NSCLC
structure (smiles),measurement,setting,value
O=C(/C=C/c1nnc2n(Cc3ccccc3)c(=O)c3c4c(sc3n12)CCCC4)c1ccccc1,GI50,[1],> 100 µM
same,TGI,[1],> 100 µM
same,GI50,[2],0.407 µM and 0.332 µM
same,TGI,[2],> 100 µM
same,GI50,[3],3.54 µM
same,TGI,[4],> 100 µM
same,GI50,[5],4.59 µM
same,TGI,[5],> 100 µM
same,GI50,[6],3.76 µM and 0.502 µM
same,TGI,[6],> 100 µM
same,GI50,[7],2.22 µM
same,TGI,[7],7.76 µM
same,GI50,[8],3.14 µM
same,GI50,[9],1.42 µM
same,TGI,[9],4.44 µM
same,GI50,[10],> 100 µM
same,TGI,[10],> 100 µM
same,GI50,[11],0.622 µM and 0.248 µM
same,TGI,[11],0.769 µM
same,GI50,[12],1.09 µM
same,TGI,[12],> 100 µM
same,GI50,[13],3.06 µM
same,GI50,[14],> 100 µM
same,TGI,[14],> 100 µM
same,GI50,[15],1.56 µM and 2.36 µM
same,TGI,[16],> 100 µM
same,GI50,[17],> 100 µM
same,TGI,[17],> 100 µM
same,GI50,[18],0.31 µM
same,TGI,[18],1.12 µM
same,GI50,[19],1.55 µM
same,TGI,[19],> 100 µM
same,GI50,[20],2.04 µM and 0.389 µM
same,TGI,[20],> 100 µM
same,GI50,[21],0.354 µM
same,TGI,[21],1.38 µM
same,GI50,[22],0.902 µM and 0.199 µM
same,TGI,[22],> 100 µM
same,GI50,[23],> 100 µM
same,TGI,[23],> 100 µM
same,GI50,[24],> 100 µM
same,TGI,[24],> 100 µM
same,GI50,[25],> 100 µM
same,TGI,[25],> 100 µM
same,GI50,[26],4.1 µM
same,GI50,[27],0.219 µM
same,TGI,[27],0.55 µM
same,GI50,[28],3.2 µM
same,GI50,[29],0.0522 µM and 0.217 µM
same,TGI,[29],0.658 µM
same,GI50,[30],21.3 µM
same,TGI,[30],91.2 µM
same,GI50,[31],3.48 µM
same,GI50,[32],> 100 µM
same,TGI,[32],> 100 µM
same,GI50,[33],> 100 µM
same,TGI,[33],> 100 µM
same,GI50,[34],> 100 µM
same,TGI,[34],> 100 µM
same,GI50,[35],> 100 µM
same,TGI,[35],> 100 µM
same,TGI,[36],> 100 µM
same,GI50,[37],0.177 µM and 0.254 µM
same,TGI,[37],0.817 µM and 0.738 µM
same,GI50,[38],0.0387 µM
same,TGI,[38],0.419 µM
same,GI50,[39],3.9 µM
same,GI50,[40],0.328 µM and 0.205 µM
same,TGI,[40],4.69 µM and 0.699 µM
same,GI50,[41],> 100 µM
same,TGI,[41],> 100 µM
same,GI50,[42],> 100 µM
same,TGI,[42],> 100 µM
same,TGI,[43],> 100 µM
same,TGI,[44],> 100 µM
same,GI50,[45],> 100 µM
same,TGI,[45],> 100 µM
CN1CCN(c2ccc3[nH]c(C4=C(O)C(=O)[C@@H]5C(=C4O)N=C(CO)N5C)nc3n2)CC1,TGI,[1],> 100 µM
same,TGI,[2],> 100 µM
same,TGI,[3],> 100 µM
same,TGI,[4],> 100 µM
same,TGI,[46],> 100 µM
same,TGI,[5],> 100 µM
same,TGI,[6],> 100 µM
same,TGI,[7],> 100 µM
same,TGI,[8],> 100 µM
same,TGI,[47],> 100 µM
same,TGI,[9],> 100 µM
same,TGI,[10],> 100 µM
same,TGI,[11],> 100 µM
same,TGI,[12],> 100 µM
same,TGI,[13],> 100 µM
same,TGI,[14],> 100 µM
same,TGI,[15],> 100 µM
same,TGI,[16],> 100 µM
same,TGI,[48],> 100 µM
same,TGI,[18],> 100 µM
same,TGI,[19],> 100 µM
same,TGI,[20],> 100 µM
same,TGI,[22],> 100 µM
same,TGI,[23],> 100 µM
same,TGI,[24],> 100 µM
same,TGI,[25],> 100 µM
same,TGI,[26],> 100 µM
same,TGI,[49],> 100 µM
same,TGI,[27],> 100 µM
same,TGI,[50],> 100 µM
same,TGI,[30],> 100 µM
same,TGI,[31],> 100 µM
same,TGI,[51],> 100 µM
same,TGI,[32],> 100 µM
same,TGI,[33],> 100 µM
same,TGI,[34],> 100 µM
same,TGI,[35],> 100 µM
same,TGI,[36],> 100 µM
same,TGI,[52],> 100 µM
same,TGI,[53],> 100 µM
same,TGI,[54],> 100 µM
same,TGI,[37],> 100 µM
same,TGI,[55],> 100 µM
same,TGI,[56],> 100 µM
same,TGI,[38],> 100 µM
same,TGI,[57],> 100 µM
same,TGI,[39],> 100 µM
same,TGI,[40],> 100 µM
same,TGI,[58],> 100 µM
same,TGI,[41],> 100 µM
same,TGI,[42],> 100 µM
same,TGI,[44],> 100 µM
